Measured values published in ChEMBL document CHEMBL1201862, “PubChem BioAssay data set” (2004).
Several values for one entry are separate records, joined by “and”; a condition that tells them apart may be missing. Equal values may be shown once.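 1) Cells in 96-well plates. 2) Compound, 48 h, 5 concentrations. 3) Linear interpolation between surrounding doses. 4) Unreached endpoint = highest concentration. At the GI50, growth is halved.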 Activity calls are given as the source filed them. Rule as the data show it: active = GI50 up to about 1.1 µM and inactive = higher. Starred links: 1 amine or outer side, 2 acyl side, 3 side chain; linkers in the order of their positions; H or OH if unused. Positions of bridges follow the written chain, without caps; N, C: chain ends. Non-standard residues stand in square brackets, D forms with d. Residues, ends and D or L forms follow the SMILES beside them. Chains are numbered I, II in the order given. Actinocin(9to1) = Cc1c2oc3c(C)ccc(C(=O)[*:1])c3nc-2c(C(=O)[*:2])c(N)c1=O; NMeF = CN[CH](Cc1ccccc1)C(=O)O; Sar = CNCC(=O)O

Columns and labels:
Assay in all cases: NCI-60 cell line screen, 48 h
SF-268 = system: SF-268
NCI-H226 = system: NCI-H226
LOX IMVI = system: LOX IMVI
HCT-15 = system: HCT-15
M14 = system: M14
A498 = system: A498
Malme-3M = system: Malme-3M
MDA-MB-435 = system: MDA-MB-435
HT-29 = system: HT-29
NCI/ADR-RES = system: NCI/ADR-RES
KM12 = system: KM12
U-251 = system: U-251
SF-295 = system: SF-295
ACHN = system: ACHN
PC-3 = system: PC-3
EKVX = system: EKVX
MDA-MB-231 = system: MDA-MB-231
BT-549 = system: BT-549
MCF7 = system: MCF7
OVCAR-8 = system: OVCAR-8
DU-145 = system: DU-145
OVCAR-4 = system: OVCAR-4
MDA-N = system: MDA-N
SK-MEL-28 = system: SK-MEL-28
SF-539 = system: SF-539
HOP-92 = system: HOP-92
SW-620 = system: SW-620
UACC-257 = system: UACC-257
Hs-578T = system: Hs-578T
786-0 = system: 786-0
UO-31 = system: UO-31
HCT-116 = system: HCT-116
RPMI-8226 = system: RPMI-8226
SK-MEL-5 = system: SK-MEL-5
TK-10 = system: TK-10
COLO 205 = system: COLO 205
HOP-62 = system: HOP-62
NCI-H460 = system: NCI-H460
IGROV-1 = system: IGROV-1
HL-60 = system: HL-60
HCC 2998 = system: HCC 2998
SN12C = system: SN12C
OVCAR-3 = system: OVCAR-3
SR = system: SR
A549 = system: A549
OVCAR-5 = system: OVCAR-5
SNB-19 = system: SNB-19
NCI-H23 = system: NCI-H23
K562 = system: K562
T47D = system: T47D
SNB-75 = system: SNB-75
CAKI-1 = system: CAKI-1
SK-MEL-2 = system: SK-MEL-2
SK-OV-3 = system: SK-OV-3
RXF 393 = system: RXF 393
UACC-62 = system: UACC-62
MOLT-4 = system: MOLT-4
NCI-H522 = system: NCI-H522
CCRF-CEM = system: CCRF-CEM

O=c1cc(NNc2ccc3ccccc3c2)[nH]c(=S)[nH]1
GI50 (SF-268): 21.1 µM (inactive)
GI50 (NCI-H226): > 100 µM (inactive)
GI50 (LOX IMVI): 13 µM (inactive)
GI50 (HCT-15): 14.5 µM
GI50 (M14): 33.2 µM (inactive)
GI50 (A498): > 100 µM (inactive)
GI50 (Malme-3M): 63.7 µM (inactive)
GI50 (MDA-MB-435): 23.4 µM (inactive)
GI50 (HT-29): 16.4 µM (inactive)
GI50 (NCI/ADR-RES): > 100 µM (inactive)
GI50 (KM12): 17.7 µM (inactive)
GI50 (U-251): 27 µM (inactive)
GI50 (SF-295): 61.9 µM (inactive)
GI50 (ACHN): 31.6 µM (inactive)
GI50 (PC-3): 19.8 µM (inactive)
GI50 (EKVX): > 100 µM (inactive)
GI50 (MDA-MB-231): 42.8 µM (inactive)
GI50 (BT-549): 39.6 µM (inactive)
GI50 (MCF7): 4.31 µM (inactive)
GI50 (OVCAR-8): 44.9 µM (inactive)
GI50 (DU-145): > 100 µM (inactive)
GI50 (OVCAR-4): 68.7 µM (inactive)
GI50 (MDA-N): 45.6 µM (inactive)
GI50 (SK-MEL-28): 49.9 µM (inactive)
GI50 (SF-539): 30.3 µM (inactive)
GI50 (HOP-92): 28.1 µM (inactive)
GI50 (SW-620): 18.2 µM (inactive)
GI50 (UACC-257): > 100 µM (inactive)
GI50 (Hs-578T): 25 µM (inactive)
GI50 (786-0): 6.75 µM (inactive)
GI50 (UO-31): > 100 µM (inactive)
GI50 (HCT-116): 39.9 µM (inactive)
GI50 (RPMI-8226): 22.2 µM (inactive)
GI50 (SK-MEL-5): > 100 µM (inactive)
GI50 (TK-10): > 100 µM (inactive)
GI50 (COLO 205): 23.2 µM (inactive)
GI50 (HOP-62): 27.4 µM (inactive)
GI50 (NCI-H460): 40.9 µM (inactive)
GI50 (IGROV-1): 22.5 µM (inactive)
GI50 (HL-60): 24.7 µM (inactive)
GI50 (HCC 2998): 24 µM (inactive)
GI50 (SN12C): 34.8 µM (inactive)
GI50 (OVCAR-3): 19.3 µM (inactive)
GI50 (SR): 29.7 µM (inactive)
GI50 (A549): > 100 µM (inactive)
GI50 (OVCAR-5): > 100 µM (inactive)
GI50 (SNB-19): 94.8 µM (inactive)
GI50 (NCI-H23): > 100 µM (inactive)
GI50 (K562): 18.6 µM (inactive)

Cc1c2oc3c(C)ccc(C(=O)NC4C(=O)NC(C(C)C)C(=O)N5CCCC5C(=O)N(C)CC(=O)N(C)C(Cc5ccccc5)C(=O)OC4C)c3nc-2c(C(=O)NC2C(=O)NC(C(C)C)C(=O)N3CCCC3C(=O)N(C)CC(=O)N(C)C(Cc3ccccc3)C(=O)OC2C)c(N)c1=O (stereo not given) (I: TVP[Sar][NMeF] / II: TVP[Sar][NMeF]; ester I:1-I:C, II:1-II:C; linker I:N-II:N via Actinocin(9to1); configuration not given here)
GI50 (T47D): 0.00521 µM (active)
GI50 (SF-268): < 10 nM (active) and 9.29 nM (active)
GI50 (NCI-H226): < 10 nM (active) and 16.5 nM (active)
GI50 (M14): < 10 nM (active) and 19.6 nM (active)
GI50 (A498): 0.0108 µM (active)
GI50 (Malme-3M): < 10 nM (active) and 6.65 nM (active)
GI50 (MDA-MB-435): < 10 nM (active) and 6.21 nM (active)
GI50 (KM12): 0.00504 µM (active)
GI50 (SF-295): < 10 nM (active) and 10.8 nM (active)
GI50 (ACHN): 0.00989 µM (active)
GI50 (PC-3): 0.0112 µM (active)
GI50 (SNB-75): < 10 nM (active) and 7.11 nM (active)
GI50 (BT-549): 0.0189 µM (active)
GI50 (CAKI-1): < 10 nM (active) and 17.3 nM (active)
GI50 (OVCAR-8): 0.0127 µM (active)
GI50 (DU-145): 0.00807 µM (active)
GI50 (OVCAR-4): < 10 nM (active) and 6.64 nM (active)
GI50 (SK-MEL-28): < 10 nM (active) and 7.33 nM (active)
GI50 (SK-MEL-2): 0.00957 µM (active)
GI50 (SF-539): < 10 nM (active) and 5.64 nM (active)
GI50 (HOP-92): < 10 nM (active) and 14.9 nM (active)
GI50 (SW-620): < 10 nM (active) and 6.17 nM (active)
GI50 (UACC-257): < 10 nM (active) and 12.8 nM (active)
GI50 (Hs-578T): < 10 nM (active) and 7.24 nM (active)
GI50 (RPMI-8226): < 10 nM (active) and 9.95 nM (active)
GI50 (SK-MEL-5): < 10 nM (active) and 6 nM (active)
GI50 (SK-OV-3): 0.0157 µM (active)
GI50 (HOP-62): < 10 nM (active) and 9.31 nM (active)
GI50 (HCC 2998): 0.00887 µM (active)
GI50 (OVCAR-3): < 10 nM (active) and 12.9 nM (active)
GI50 (RXF 393): < 10 nM (active) and 12.5 nM (active)
GI50 (NCI-H23): < 10 nM (active) and < 11.1 nM (active)

COc1cc2c(c(O)c1OC)C(O)C1CCC(=O)N1C2c1ccc2c(c1)OCO2 (stereo not given)
GI50 (T47D): > 100 µM (inactive)
GI50 (SF-268): > 100 µM (inactive)
GI50 (NCI-H226): > 100 µM (inactive)
GI50 (LOX IMVI): > 100 µM (inactive)
GI50 (HCT-15): > 100 µM
GI50 (M14): > 100 µM (inactive)
GI50 (A498): > 100 µM (inactive)
GI50 (UACC-62): > 100 µM (inactive)
GI50 (Malme-3M): > 100 µM (inactive)
GI50 (MDA-MB-435): > 100 µM (inactive)
GI50 (HT-29): 80.2 µM (inactive)
GI50 (NCI/ADR-RES): > 100 µM (inactive)
GI50 (KM12): > 100 µM (inactive)
GI50 (U-251): > 100 µM (inactive)
GI50 (SF-295): > 100 µM (inactive)
GI50 (ACHN): > 100 µM (inactive)
GI50 (PC-3): > 100 µM (inactive)
GI50 (SNB-75): 81.3 µM (inactive)
GI50 (EKVX): > 100 µM (inactive)
GI50 (MDA-MB-231): > 100 µM (inactive)
GI50 (BT-549): > 100 µM (inactive)
GI50 (MCF7): > 100 µM (inactive)
GI50 (CAKI-1): > 100 µM (inactive)
GI50 (OVCAR-8): > 100 µM (inactive)
GI50 (DU-145): > 100 µM (inactive)
GI50 (MOLT-4): > 100 µM (inactive)
GI50 (OVCAR-4): > 100 µM (inactive)
GI50 (SK-MEL-28): > 100 µM (inactive)
GI50 (SF-539): > 100 µM (inactive)
GI50 (HOP-92): > 100 µM (inactive)
GI50 (SW-620): > 100 µM (inactive)
GI50 (UACC-257): > 100 µM (inactive)
GI50 (786-0): > 100 µM (inactive)
GI50 (UO-31): > 100 µM (inactive)
GI50 (HCT-116): > 100 µM (inactive)
GI50 (SK-OV-3): > 100 µM (inactive)
GI50 (TK-10): > 100 µM (inactive)
GI50 (COLO 205): > 100 µM (inactive)
GI50 (HOP-62): > 100 µM (inactive)
GI50 (NCI-H460): > 100 µM (inactive)
GI50 (IGROV-1): > 100 µM (inactive)
GI50 (HL-60): > 100 µM (inactive)
GI50 (HCC 2998): > 100 µM (inactive)
GI50 (SN12C): > 100 µM (inactive)
GI50 (OVCAR-3): > 100 µM (inactive)
GI50 (SR): > 100 µM (inactive)
GI50 (A549): > 100 µM (inactive)
GI50 (OVCAR-5): > 100 µM (inactive)
GI50 (SNB-19): > 100 µM (inactive)
GI50 (RXF 393): > 100 µM (inactive)
GI50 (NCI-H23): > 100 µM (inactive)
GI50 (NCI-H522): > 100 µM (inactive)
GI50 (CCRF-CEM): > 100 µM (inactive)
GI50 (K562): > 100 µM (inactive)
